Assay results from patent US9718774B2, “Indole carboxamide derivatives as P2X7 receptor antagonist” (ACTELION PHARMACEUTICALS LTD, priority 2012, dated 2017).
Read-outs that look alike come from different tables or passages of the source.

Molecular target: T1, human recombinant P2X7 receptor (Homo sapiens, UniProt Q99572)
T1 construct: expressed in transfected cells
T1 sequence (Q99572 1-595): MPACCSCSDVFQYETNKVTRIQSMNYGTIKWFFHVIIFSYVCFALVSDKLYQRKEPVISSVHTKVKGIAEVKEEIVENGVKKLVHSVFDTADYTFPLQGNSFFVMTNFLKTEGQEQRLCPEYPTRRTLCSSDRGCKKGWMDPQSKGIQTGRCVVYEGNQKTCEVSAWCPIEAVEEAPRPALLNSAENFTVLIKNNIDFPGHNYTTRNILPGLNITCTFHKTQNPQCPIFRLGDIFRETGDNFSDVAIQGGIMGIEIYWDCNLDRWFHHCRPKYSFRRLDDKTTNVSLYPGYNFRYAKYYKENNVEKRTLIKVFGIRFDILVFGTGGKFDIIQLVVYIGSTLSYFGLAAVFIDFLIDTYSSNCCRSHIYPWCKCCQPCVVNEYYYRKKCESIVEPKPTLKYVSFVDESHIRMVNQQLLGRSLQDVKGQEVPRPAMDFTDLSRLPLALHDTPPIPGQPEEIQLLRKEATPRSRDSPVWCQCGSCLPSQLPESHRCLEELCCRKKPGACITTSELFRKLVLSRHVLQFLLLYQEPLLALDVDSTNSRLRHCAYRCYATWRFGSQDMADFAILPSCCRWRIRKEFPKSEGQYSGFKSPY
Assay: YO-PRO assay: P2X7 receptor antagonistic activity in HEK cells stably expressing P2X7
Format: cell-based
Procedure: The P2X7 receptor antagonistic activity of the compounds of formula (I) is determined in accordance with the following experimental method.
Cell Line Generation and YO-PRO Assay
Cell line generation was performed in general according to established molecular cloning protocols. Specifically, RNA was extracted from human whole blood using the Qiagen RNeasy kit (Qiagen, CH) according to the manufacturer's instructions. Subsequently cDNA was made (Superscript II, Invitrogen AG, CH) and the human P2X7 gene (genbank ref. BC011913) was amplified with the following primers: […] and […]. The amplified sequence was subsequently ligated into a pcDNA3.1 (+) NotI, NheI digested plasmid. Human embryonic kidney (HEK) cells (ATCC CRL—1573, Manassas, Va., USA) were transfected with the pcDNA3.1 (+).hP2X7 plasmid using lipofectamine 2000 (Invitrogen AG, CH) according to the manufacturer's instructions. Following a 24 h exposure to DNA, cells were trypsinized and re-seeded at low density in the presence of 250 μg Geneticin. Geneticin resistant cells were then selected during two consecutive rounds of cloning by serial limiting dilution with visual inspection. Individual clones were screened for P2X7 expression by applying ATP and recording the resultant uptake of YO-PRO1. Specific cell clones were chosen based on RNA and protein expression. HEK cells stably expressing P2X7 were used to screen drugs using the YO-PRO1 assay. Cells were grown to confluency in adherent culture at 37° C. in a humidified 5% CO2 incubator (split 1/5 every 3-4 days with DMEM, 10% FCS, 1% Penicillin/Streptomycin, 250 μg/ml Geneticin). Adherent cells were detached by incubation with Trypsine (1 ml per 165 cm^2 dish) for 2 minutes, then washed off with 10 ml PBS (without Mg^2+ and Ca^2+), and resuspended in DMEM, 10% FCS, 1% Penicillin/Streptomycin, no Geneticin. 10′000 cells per well (48 hours before the assay) or 25′000 cells per well (Vi-cell XR (Beckman Coulter) (24 hours before the assay) in 50 μl full medium were seeded on 384-well black-wall, clear bottom plates, that were coated before with 10 μl per well Poly-L-Lysine, incubated for 30-60 minutes at 37° C. and washed once with PBS. Medium was removed from cells and 50 μl of assay buffer containing 0.5 μM YO-PRO-1 was added into the wells. Solutions of antagonist compounds were prepared by serial dilutions of a 10 mM DMSO solution of the antagonist into PBS using a BioMek (Beckman Coulter). Each concentration was performed in duplicate. For IC50 measurements 10 concentration points were measured (10 μM being the highest concentration followed by 9 serial dilution steps 1/3). The cells were incubated with the antagonists of the present invention together with ATP at a final concentration of 250 μM for 90 minutes. During this time period, four time points were taken. Each time point comprised the average of several measurements made within a few seconds. Fluorescence was measured in the FLIPR tetra (Molecular Devices) using the filters appropriate for YO-PRO-1 fluorescence (excitation 485/20, emission 530/25). The FLIPR tetra was equipped with Molecular Devices Screen Works system control software to define and run experimental protocols. […] For IC50 measurements the maximum intensity is plotted against the concentration of compound to determine IC50 values.

[1] = antagonistic activity with respect to the P2X7 receptor, read-out: IC50

Compound | IC50 [1] | IC50 (IC50, antagonistic activity with respect to the P2X7 receptor)
O=C(NCC(c1ccc(Cl)cc1F)N1CCOCC1)c1ccc2[nH]ccc2c1Cl (racemic) [Example 40, rac-4-Chloro-1H-indole-5-carboxylic acid [2-(4-chloro-2-fluoro-phenyl)-2-morpholin-4-yl-ethyl]-amide] | 73 nM | –
Cc1ccc(C(CNC(=O)c2ccc3[nH]ccc3c2Cl)N2CCOCC2)cn1 (racemic) [Example 7, rac-4-Chloro-1H-indole-5-carboxylic acid [2-(6-methyl-pyridin-3-yl)-2-morpholin-4-yl-ethyl]-amide] | 19 nM | –
O=C(NCC(c1ccc(Oc2ccccc2)cc1)N1CCCCC1)c1ccc2[nH]ccc2c1Cl (racemic) [Example 57, rac-4-Chloro-1H-indole-5-carboxylic acid [2-(4-phenoxy-phenyl)-2-piperidin-1-yl-ethyl]-amide] | 187 nM | –
Cc1ncc(C(CNC(=O)c2ccc3[nH]ccc3c2Cl)N2CCC(F)(F)CC2)cn1 (single isomer, unassigned) [Example 5, 4-Chloro-1H-indole-5-carboxylic acid [2-(4,4-difluoro-piperidin-1-yl)-2-(2-methyl-pyrimidin-5-yl)-ethyl]-amide] | 7.9 nM | –
Cc1ncc(C(CNC(=O)c2ccc3[nH]ccc3c2Cl)N2CCOCC2)cn1 (single isomer, unassigned) [Example 4, 4-Chloro-1H-indole-5-carboxylic acid [2-(2-methyl-pyrimidin-5-yl)-2-morpholin-4-yl-ethyl]-amide] | 9.4 nM | –
Cc1ncc(C(CNC(=O)c2ccc3[nH]ccc3c2Cl)N2CC3CC(C2)O3)cn1 (stereo not drawn) [Example 95, 4-Chloro-1H-indole-5-carboxylic acid [2-(2-methyl-pyrimidin-5-yl)-2-(6-oxa-3-aza-bicyclo[3.1.1]hept-3-yl)-ethyl]-amide] | – | 28 nM
Cc1ncc(C(CNC(=O)c2ccc3[nH]ccc3c2C)N2CCOCC2)cn1 (single isomer, unassigned) [Example 106, 4-Methyl-1H-indole-5-carboxylic acid [2-(2-methyl-pyrimidin-5-yl)-2-morpholin-4-yl-ethyl]-amide] | 25 nM | –
COc1cc(C(=O)NCC(c2cnc(C)nc2)N2CCOCC2)c(Cl)c2cc[nH]c12 (single isomer, unassigned) [Example 114, 4-Chloro-7-methoxy-1H-indole-5-carboxylic acid [2-(2-methyl-pyrimidin-5-yl)-2-morpholin-4-yl-ethyl]-amide] | 14 nM | –
Cc1ncc(C(CNC(=O)c2cc(C)c3[nH]ccc3c2Cl)N2CCOCC2)cn1 (single isomer, unassigned) [Example 96, 4-Chloro-7-methyl-1H-indole-5-carboxylic acid [2-(2-methyl-pyrimidin-5-yl)-2-morpholin-4-yl-ethyl]-amide] | 9.6 nM | –
Cc1ncc(C(CNC(=O)c2cc(OCCOC(C)(C)C)c3[nH]ccc3c2Cl)N2CCOCC2)cn1 (racemic) [Example 112, rac-7-(2-tert-Butoxy-ethoxy)-4-chloro-1H-indole-5-carboxylic acid [2-(2-methyl-pyrimidin-5-yl)-2-morpholin-4-yl-ethyl]-amide] | 32 nM | –
Cc1ccc(C(CNC(=O)c2ccc3[nH]ccc3c2Cl)N2CCCCC2)cc1 (racemic) [Example 55, rac-4-Chloro-1H-indole-5-carboxylic acid (2-piperidin-1-yl-2-p-tolyl-ethyl)-amide] | 774 nM | –
Cc1ncc(C(CNC(=O)c2ccc3[nH]ccc3c2Cl)N2CCC2)cn1 (racemic) [Example 13, rac-4-Chloro-1H-indole-5-carboxylic acid [2-azetidin-1-yl-2-(2-methyl-pyrimidin-5-yl)-ethyl]-amide] | 831 nM | –
COc1cc(C(=O)NCC(c2cnc(C)nc2)N2CCOCC2)c(C)c2cc[nH]c12 (racemic) [Example 109, rac-7-Methoxy-4-methyl-1H-indole-5-carboxylic acid [2-(2-methyl-pyrimidin-5-yl)-2-morpholin-4-yl-ethyl]-amide] | 25 nM | –
Cc1ncc(C(CNC(=O)c2ccc3[nH]ccc3c2Cl)NCC(C)C)cn1 (racemic) [Example 85, rac-4-Chloro-1H-indole-5-carboxylic acid [2-isobutylamino-2-(2-methyl-pyrimidin-5-yl)-ethyl]-amide] | 303 nM | –
O=C(NCC(c1cccnn1)N1CCOCC1)c1ccc2[nH]ccc2c1Cl (racemic) [Example 90, rac-4-Chloro-1H-indole-5-carboxylic acid (2-morpholin-4-yl-2-pyridazin-3-yl-ethyl)-amide] | 1620 nM | –
COc1cc(C(=O)NCC(c2cnc(C)nc2)N2CCOCC2)c(Cl)c2cc[nH]c12 (single isomer, unassigned) [Example 115, 4-Chloro-7-methoxy-1H-indole-5-carboxylic acid [2-(2-methyl-pyrimidin-5-yl)-2-morpholin-4-yl-ethyl]-amide] | 8.2 nM | –
O=C(NCC(c1ccc(C(F)(F)F)cc1)N1CCCCC1)c1ccc2[nH]ccc2c1Cl (racemic) [Example 44, rac-4-Chloro-1H-indole-5-carboxylic acid [2-piperidin-1-yl-2-(4-trifluoromethyl-phenyl)-ethyl]-amide] | 889 nM | –
O=C(NCC(c1c(F)cc(F)cc1F)N1CCOCC1)c1ccc2[nH]ccc2c1Cl (racemic) [Example 33, rac-4-Chloro-1H-indole-5-carboxylic acid [2-morpholin-4-yl-2-(2,4,6-trifluoro-phenyl)-ethyl]-amide] | 301 nM | –
Cc1ncc(C(CNC(=O)c2ccc3[nH]ccc3c2Cl)OC2CCCC2)cn1 (racemic) [Example 52, rac-4-Chloro-1H-indole-5-carboxylic acid [2-cyclopentyloxy-2-(2-methyl-pyrimidin-5-yl)-ethyl]-amide] | 32 nM | –
COc1ccc(C(CNC(=O)c2ccc3[nH]ccc3c2Cl)N2CCOCC2)cn1 (racemic) [Example 11, rac-4-Chloro-1H-indole-5-carboxylic acid [2-(6-methoxy-pyridin-3-yl)-2-morpholin-4-yl-ethyl]-amide] | 14 nM | –
CCCc1cc(C(=O)NCC(c2cnc(C)nc2)N2CCOCC2)c(Cl)c2cc[nH]c12 (racemic) [Example 111, rac-4-Chloro-7-propyl-1H-indole-5-carboxylic acid [2-(2-methyl-pyrimidin-5-yl)-2-morpholin-4-yl-ethyl]-amide] | 18 nM | –
O=C(NCC(c1cnc(C(F)(F)F)nc1)N1CCOCC1)c1ccc2[nH]ccc2c1Cl (racemic) [Example 1, rac-4-Chloro-1H-indole-5-carboxylic acid [2-morpholin-4-yl-2-(2-trifluoromethyl-pyrimidin-5-yl)-ethyl]-amide] | 3.9 nM | –
COCCCc1cc(C(=O)NCC(c2cnc(C)nc2)N2CCOCC2)c(Cl)c2cc[nH]c12 (racemic) [Example 99, rac-4-Chloro-7-(3-methoxy-propyl)-1H-indole-5-carboxylic acid [2-(2-methyl-pyrimidin-5-yl)-2-morpholin-4-yl-ethyl]-amide] | 21 nM | –
Cc1ncc(C(CNC(=O)c2ccc3[nH]ccc3c2Cl)N2CCC(F)CC2)cn1 (racemic) [Example 78, rac-4-Chloro-1H-indole-5-carboxylic acid [2-(4-fluoro-piperidin-1-yl)-2-(2-methyl-pyrimidin-5-yl)-ethyl]-amide] | 12 nM | –
